Where two headings read alike, the source gives them in different places.
Columns and labels:
physchem = type: physicochemical
Experimental: The partition coefficient (P) is defined as the ratio of the concentrations (C) to the equilibrium of a dissolved and highly diluted substance in a biphasic system consisting of two almost immiscible solvents.
In the case of n-octanol and water:
The partition coefficient P is the quotient of two concentrations, it is generally indicated in its logarithmic form, base 10 (LogP).
The log P values of different perfume ingredients were measured using standard high performance liquid chromatography method, according to the reference (OECD, guideline No. 117, adopted on 13 Apr. 2004, Partition coefficient (n-octanol-water), High Performance Liquid Chromatography (HPLC) Method).

[1] = tested on: Escherichia coli ATCC 10536; assay: Robotic BCT test of perfume ingredients in model surfactant bases; type: cell-based; conditions: for Log reduction (Log CFU/mL) Base 3: Base 3: SLES 1.5%, coco-glucoside 0.75%; for Log reduction (Log CFU/mL) Base 4: Base 4: SLES 2.25%, sodium xylene sulfonate 3%; for log reduction at 0.5 %: Escherichia coli, ATCC10536, 45 s
Experimental: The surfactant bases tested included 1) sodium lauryl ether sulfate (SLES) and cocamidopropyl betaine (CAPB) at 3:1 mass ratios; 2) SLES, CAPB and coco-glucoside at 2:1:1 mass ratios. Test samples were prepared by mixing perfume ingredients with the surfactant bases and vigorously stirred for 24 hrs. Concentration of perfume ingredients in the bases was 0.5% wt. Samples with transparent appearance were selected for antimicrobial testing.
Antimicrobial efficacy was tested against a representative Gram-negative bacterial strain, Escherichia coli ATCC 10536, using robotic bacteria contact time (BCT) test based on European standard EN-1276 and EP2787827(B1).
Preparation of screening plate and dilution plate: Aliquots (270 µl) of compositions were dispensed into the wells of a 96-well microtiter plate (MTP) along two columns (B1-H1, and B7-H7), and 270 µl of MilliQ water was added to well A1 and A7 as the control samples. This MTP was labelled as the “Screening plate”. In another MTP, labelled as the “Dilution plate”, 270 µL of Dey-Engley (D/E) neutralizing solution was added to column 1 and column 7. 270 µl of tryptone diluent solution was added to columns 2-6 and columns 8-12 of the Dilution MTP by a Hamilton robotic liquid handling station.
BCT test & neutralization & dilution: Bacterial stock (30 µl) was then added to columns 1 of the ‘Screening plate’ and mixed by a Hamilton robotic liquid handling station. After a contact time of 45 seconds, 30 µl of the mixtures in column 1 were transferred into the corresponding wells of column 1 of the ‘Dilution plate’. After neutralizing for 5 minutes in the D/E neutralizing solution, 30 µl of the neutralized mixtures were transferred from column 1 to column 2 of the Dilution MTP and mixed, followed by transferring 30 µl of the mixtures from column 2 into column 3. This process was repeated serially diluting the bacteria suspensions across the plate to column 6. Bacterial stock (30 µl) was then added to columns 7 of the ‘Screening plate’ and mixed by a Hamilton robotic liquid handling station. After a contact time of 45 seconds, 30 µl of the mixtures in column 7 were transferred into the corresponding wells of column 7 of the ‘Dilution plate’. After neutralizing for 5 minutes in the D/E neutralizing solution, 30 µl of the mixtures were transferred from column 7 to column 8 of the Dilution MTP and mixed, followed by transferring further 30 µl mixtures from column 8 into column 9. This process was repeated serially diluting the bacteria suspensions across the plate to column 12.
Plating: 30 µl volumes from each well in the Dilution MTP were transferred onto four Tryptone Soya Agar (TSA) plates. The TSA plates were allowed to stand for about two hours so that the 30 µl inocula spots could dry and the plates were then inverted and incubated overnight at 37° C. for 24 hours. After incubation, colonies were counted.
Calculating log reduction: Select the dilutions with colony counts, and calculate the viable cell counts (CFU/mL) of mixture in ‘Screening plate’, and log reduction against the control MilliQ sample was calculated.

[2] = Equivalent alkane carbon number (EACN) in model microemulsion system; type: physicochemical; conditions: C10E5/water/isopropyl myristate model system, 3% wt perfume ingredient
Experimental: EACN values provide information on polarity and surface activity of apolar ingredients. Tchakalova and Fieber (J. of Surfactants and Detergents, 2012, 15(2):167-177) classified perfume ingredients based on values of EACNmix, the EACN of a mixture consisting of a test perfume ingredient and a reference oil (isopropyl myristate). The same model system and method were used to measure the EACN values of perfume ingredients with antimicrobial activities. Different perfume ingredients were added to the model microemulsion system shown in Table 1, in which the nonionic pentaethylene glycol mono n-decyl ether (C10E5) was used as surfactant. Phase transition temperatures of the system from Winsor I to Winsor III, and from Winsor III to Winsor II were determined using a water bath. Alkanes with different alkane carbon numbers (octane, decane, dodecane and hexadecane) were used to establish a linear correlation curve between EACN and the PIT, which is the average of the transitions from Winsor I to Winsor III, and from Winsor III to Winsor II, respectively. EACNmix was then calculated based on the linear relationship and the measured PIT for systems containing different perfume ingredients. The EACN of the pure perfume ingredient was calculated based on the molar ratio of the tested PRMs in the oil phase using following equation: […]
wherein n and nref are the molar fractions of tested perfume ingredient and the reference ingredient (i.e., isopropyl myristate) in the oil phase, respectively.

[3] = 0.5% perfume ingredient, Base 1: SLES 1.875%, CAPB 0.625%, contact 45 s
[4] = 0.5% perfume ingredient, Base 2: SLES 2.25%, CAPB 0.75%, contact 45 s
[5] = 0.5% perfume ingredient, CAPB 0.75%, contact 45 s
[6] = n-octanol/water, HPLC method, read-out: Log P
[7] = 0.5% perfume ingredient, Base 1: SLES 1.875%, CAPB 0.625%, contact 45 s, read-out: Log reduction in Base 1 (Log CFU/mL)
[8] = 0.5% perfume ingredient, Base 2: SLES 2.25%, CAPB 0.75%, contact 45 s, read-out: Log reduction (Log CFU/mL) Base 2
[9] = model base 1, table by functional group, read-out: Log reduction in Base 1 (Log CFU/mL)
[10] = model base 1, table by functional group

Compound	EACN [2]	chromatographic logP (physchem; [6])	log reduction at 0.5 % [1, 7]	other results
2 /3 //4-(5,5,6-trimethylbicyclo[2.2.1]hept-2-yl)-1-cyclohexanol(A/B/C) + 2-(1,7,7-trimethylbicyclo[2.2.1]hept-2-yl)-1-cyclohexanol (D)	-16.52	–	–	Log P (physchem): 5.23; Log reduction in Base 1 (Log CFU/mL) [1, 3]: 0.4 Log CFU/mL; Log reduction (Log CFU/mL) Base 2 [1, 4]: -1.0 Log CFU/mL; Log reduction (Log CFU/mL) Base 3 [1, 5]: Insoluble; Log reduction (Log CFU/mL) Base 4 [1, 5]: -0.2 Log CFU/mL
O=C1CCC[C@H]2[C@@H]1[C@H]1C=C[C@@H]2C1 (racemic) [(1RS,2SR,7RS,8SR)-tricyclo[6.2.1.0^~2,7^~]undec-9-en-3-one OR (1RS,2RS,7S,8SR)-tricyclo[6.2.1.0^~2, 7^~] undec-9-en-3-one]	-5.81	–	–	Log P (physchem): 2.53
CCC(C)(O)CCCC(C)C (racemic) [(+-)-3,7-dimethyl-3-octanol]	-4.83	3.78	1.9 ± 1.6	Log reduction (Log CFU/mL) Base 3 [1, 5]: 0.3 Log CFU/mL; Log reduction (Log CFU/mL) Base 4 [1, 5]: 0.4 Log CFU/mL; log reduction at 0.5 % [1, 8]: 0
CC(CCO)CCc1ccccc1 (racemic) [(+-)-3-methyl-5-phenyl-1-pentanol]	-37.05	–	5 ± 2.1	chromatographic logP (physchem): 3; Log reduction (Log CFU/mL) Base 3 [1, 5]: 2.9 Log CFU/mL; Log reduction (Log CFU/mL) Base 4 [1, 5]: 2.8 Log CFU/mL; log reduction at 0.5 % [1, 8]: 0; log reduction at 0.5 % [1, 9]: 4.3
CCCCCCC1CCC(=O)O1 (racemic) [(+-)-4-decanolide]	-4.96	3.02	0.2 ± 0.3	Log reduction (Log CFU/mL) Base 3 [1, 5]: 0.6 Log CFU/mL; Log reduction (Log CFU/mL) Base 4 [1, 5]: 0.25 Log CFU/mL; log reduction at 0.5 % [1, 8]: 0
CCCCCC1CCC(=O)O1 (racemic) [(+-)-4-nonanolide]	-11.24	2.45	–	–
C=C/C(C)=C\CC1OC1(C)C (racemic) [(+-)-(2,2-dimethyl-3-[(2Z)-3-methyl-2,4-pentadien-1-yl]oxirane OR (+-)-(2,2-dimethyl-3-[(2E)-3-methyl-2,4-pentadien-1-yl]oxirane]	-1.45	–	–	Log P (physchem): 2.92
CC/C(CC(C)CC)=N/O (racemic) [(+-)-(3Z)-5-methyl-3-heptanone oxime OR (+-)-(3E)-5-methyl-3-heptanone oxime]	-13.67	–	–	Log P (physchem): 2.45; Log reduction in Base 1 (Log CFU/mL) [1, 10]: 3.3 Log CFU/mL
CC1=CC[C@H]([C@H](C)CCO)CC1 (single isomer, unassigned)	-34.57	–	–	Log P (physchem): 3.46
CC1=C(C=O)C(C)(C)CC=C1 [2,6,6-trimethyl-1,3-cyclohexadiene-1-carbaldehyde]	-6.62	2.57	–	–
C=CCc1ccc(O)c(OC)c1 [2-methoxy-4-(2-propen-1-yl)phenol]	-31.24	2.14	0.2	–
CCCc1ccc(O)c(OC)c1 [2-methoxy-4-propyl phenol]	-34.16	2.39	–	–
CC(C)(O)Cc1ccccc1 [2-methyl-1-phenyl-2-propanol]	-17.89	1.84	-0.1	–
CC(C)(O)CCc1ccccc1 [2-methyl-4-phenyl-2-butanol]	-24.94	2.69	-0.4	–
CCCc1cccc(O)c1 [3-propylphenol]	<-29.09	2.1	> 5.5	log reduction at 0.5 % [1, 9]: > 5.5
CC(C)c1ccc(CO)cc1 [4-isopropyl-1-benzenemethanol]	-36.04	–	1.3	chromatographic logP (physchem): 2.23
Cc1ccc(O)cc1 [4-methylphenol]	<-21.95	–	0.1	chromatographic logP (physchem): 1.52
CCC/C=C/CO [(2E)-2-hexen-1-ol]	-21.91	–	-0.2	chromatographic logP (physchem): 1.73
C/C(=C\c1ccc(C)cc1)CO [(2E)-2-methyl-3-(4-methylphenyl)-2-propen-1-ol]	-36.15	2.29	–	–
C/C(C=O)=C\c1ccccc1 [(2E)-2-methyl-3-phenyl-2-propenal]	-12.17	–	–	chromatographic logP (physchem): 2.56; log reduction at 0.5 % [1, 9]: 3.7
OC/C=C/c1ccccc1 [(2E)-3-phenyl-2-propen-1-ol]	< -28.19	–	0.1	chromatographic logP (physchem): 1.79
C=C(C)[C@@H]1CC=C(CO)CC1 [(-)-(S)-1,8-P-menthadien-7-ol]	-30.83	–	–	Log P (physchem): 2.68; Log reduction in Base 1 (Log CFU/mL) [1, 3]: 4.2 ± 0.1 Log CFU/mL; Log reduction (Log CFU/mL) Base 2 [1, 4]: 0 Log CFU/mL; Log reduction (Log CFU/mL) Base 3 [1, 5]: 1.4 Log CFU/mL; Log reduction (Log CFU/mL) Base 4 [1, 5]: 2.2 Log CFU/mL; Log reduction in Base 1 (Log CFU/mL) [1, 10]: 4.2 Log CFU/mL
CCC/C=C/COC(C)=O [(E)-2-hexenyl acetate]	1.12	2.59	–	–
O=C/C=C/c1ccccc1 [(E)-3-Phenyl-2-propenal]	-13.35	–	> 3	chromatographic logP (physchem): 1.5; log reduction at 0.5 % [1, 9]: 5.1
N#C/C=C/c1ccccc1 [(E)-3-phenyl-2-propenenitrile]	-14.36	1.98	–	–
CC/C=C\CCCCCO [(Z)-6-nonen-1-ol]	-29.91	–	–	Log P (physchem): 3.4
CCOC(=O)/C=C/c1ccccc1 [Ethyl(E)-3-phenyl-2-propenoate]	–	3	1.9 ± 1	Log reduction (Log CFU/mL) Base 3 [1, 5]: Insoluble; Log reduction (Log CFU/mL) Base 4 [1, 5]: Insoluble; log reduction at 0.5 % [1, 8]: 0
c1ccc2[nH]ccc2c1 [indole]	<-24.93	1.74	–	log reduction at 0.5 % ([1]; read-out: Log reduction in Base 1 (Log CFU/mL)): 1.9
COC(=O)c1ccccc1N [methyl 2-aminobenzoate]	-22.57	1.83	–	–
